Test results from article PMC4886532, “A highly soluble, non-phototoxic, non-fluorescent blebbistatin derivative” (Scientific Reports, 2016).
Converted amounts (≈) assume the structure as drawn. Read-outs that look alike come from different tables or passages of the source.

Legend:
[1] = physchem
Procedure: (§1) 50 μM of the inhibitors were dissolved in assay buffer (see Experimental Procedures) containing 0.1 or 1 vol/vol% DMSO, centrifuged at the indicated times and the concentration of the supernatants were determined at each time point (Fig. 2a,b).
(§2) The DMSO content was 1%. […] The experiments were repeated three times.

[2] = system: HeLa Kyoto H2B-mCherry eGFP-α-tubulin cells; assay: Cell growth assay (cell number, cytokinesis)
Procedure: Cells incubated in different concentrations of the inhibitors were counted on each day for three days.

[3] = molecular target: T1, Dictyostelium discoideum myosin II motor domain (DdMD) (Dictyostelium discoideum, UniProt P08799); assay: biochemical; conditions: for IC50: 20 °C
T1 construct: Dictyostelium discoideum myosin II motor domain (DdMD)
T1 sequence (P08799 86-759 limits assumed): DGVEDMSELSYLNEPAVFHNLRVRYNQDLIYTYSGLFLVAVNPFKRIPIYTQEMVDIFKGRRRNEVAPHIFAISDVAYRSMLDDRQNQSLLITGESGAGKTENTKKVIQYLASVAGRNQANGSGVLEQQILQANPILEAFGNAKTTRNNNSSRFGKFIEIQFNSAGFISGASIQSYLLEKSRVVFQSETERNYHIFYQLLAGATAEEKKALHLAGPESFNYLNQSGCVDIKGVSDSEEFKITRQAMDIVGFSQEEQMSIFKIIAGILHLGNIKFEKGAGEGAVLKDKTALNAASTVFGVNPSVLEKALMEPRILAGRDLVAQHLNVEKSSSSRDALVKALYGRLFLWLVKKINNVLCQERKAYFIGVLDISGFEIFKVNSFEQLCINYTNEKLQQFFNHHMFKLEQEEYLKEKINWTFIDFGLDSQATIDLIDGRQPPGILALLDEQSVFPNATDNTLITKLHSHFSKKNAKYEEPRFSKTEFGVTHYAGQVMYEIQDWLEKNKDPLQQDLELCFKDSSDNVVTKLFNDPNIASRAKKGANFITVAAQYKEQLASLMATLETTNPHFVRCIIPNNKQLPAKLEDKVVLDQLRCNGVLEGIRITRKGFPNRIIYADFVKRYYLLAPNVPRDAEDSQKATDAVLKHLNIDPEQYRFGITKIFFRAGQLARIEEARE
Procedure: Myosin and actin together with the indicated concentration of the inhibitor were pre-incubated for 5 minutes at room temperature and the measurements were initiated with 1 mM ATP. Data were corrected for background ATPase activity of actin. G-actin was prepared accordingly from rabbit skeletal muscle[24] and polymerized by 2 mM MgCl2 for 1 hour at room temperature. Measurements were performed in low salt buffer containing 5 mM HEPES, 2 mM MgCl2, 0.1 mM EGTA and 2 mM DTT at pH 7.2 or assay buffer containing 20 mM HEPES, 40 mM NaCl, 4 mM MgCl2 at pH 7.3 for basal ATPase activity measurements with DdMD.

[4] = pH 7.3
Procedure: as §1, §2

[5] = system: zebrafish embryos; assay: Lifespan cytotoxicity assay; conditions: all blebbistatin concentrations
Procedure: Transgenic Tg(−8.0cldnb:lynEGFP)^zf106 (cldnb:EGFP)[25] zebrafish (Danio rerio) were maintained in the animal facility of Eötvös Loránd University. For the experiments investigating the skeletal and heart muscle of zebrafish, 6 dpf embryos were used. For cytotoxicity assays, 2 dpf embryos were dechorionated and placed in the indicated reagent concentrations. Embryos were kept in E3 medium (5 mM NaCl, 0.33 mM MgCl2, 0.33 mM CaCl2 and 0.17 mM KCl).
For the fast escape response experiments, 6 dpf embryos were placed in 50 μl drops of E3 medium on a plastic plate. […] 10 taps were carried out with 1 minute intervals every hour for 4 hours. The tapping force was standardized. The videos were recorded by a Ximea Camera (MQ003MG-CM) at 500 fps for 2 s. Data were analyzed by Flote software version 2.1 and maximal angular velocity parameters of C-start reflex were quantified. For the experiments investigating the effect of the inhibitors on the heart muscle of zebrafish, 6 dpf larvae were embedded in 1% agarose and kept in E3 in the presence of 20 μM concentrations of the inhibitors. […] Embryos were considered to be dead when the whole body became necrotic and the heart stopped beating. Dead embryos were removed from the experiment to prevent contamination. Images of zebrafish were captured with a Zeiss Stereo Lumar V12 microscope using a NeoLumar S 0.8x FWD 80mm objective at 50× zoom.

[6] = system: rabbit skeletal muscle myosin II; set-up: method as in PMID 15205456; conditions: cited from earlier work
[7] = system: smooth muscle myosin II; set-up: method as in PMID 15548862; conditions: read-out: IC50 actin activated ATPase activity; cited from earlier work

Compound	Solubility ([1]; Solubility in aqueous buffer)	Solubility ([1]; pH 7.3, Solubility)	IC50 ([2]; Homo sapiens, HeLa Kyoto, 72 h, read-out: IC50 of the inhibition of cell proliferation)	Fold weaker IC50 than blebbistatin's (cell proliferation) ([2]; day 3)	Maximal inhibition of actin activated ATPase of DdMD [3]	Maximal inhibition of basal ATPase of DdMD [3]	IC50 ([3]; 15 μM actin, read-out: IC50 actin activated ATPase activity of DdMD)	IC50 ([3]; read-out: IC50 basal ATPase of DdMD)	Fold higher IC50 of AmBleb on DdMD ([3]; comparator not named (matches actin activated ratio to Bleb))	Time the supernatant concentration stayed constant ([4]; 298 μM)	Solubility [4]	Time at which all embryos died [5]	on-rate constant kon [6]	IC50 [7]
Cc1ccc2c(c1)C(=O)[C@]1(O)CCN(c3ccc(N)cc3)C1=N2 [para-aminoblebbistatin]	440 µM (≈ 135 µg/mL)	298 ± 2.5 µM (≈ 91.6 µg/mL)	17.8 ± 4.7 µM	2–3 times	80%	90%	6.7 ± 1.9 µM	6.6 ± 2 µM	1.7 times	4 h	426 ± 1.7 µM (≈ 131 µg/mL)			
Cc1ccc2c(c1)C(=O)C1(O)CCN(c3ccccc3)C1=N2 (centres unmarked) [blebbistatin]												69 h	3400 M⁻¹ s⁻¹	79.6 µM
